Results reported in patent US9670162B2, “Mitochondrial aldehyde dehyrogenase-2 modulators and methods of use thereof” (The Board of Trustees of the Leland Stanford Junior …, priority 2013, dated 2017).

Columns and labels:
LogD (pH 7.4) = type: physicochemical
Procedure: (§1) In vitro ADMET of compounds of the present disclosure was carried out according to known methods in the art. Below are data for certain compounds of the present disclosure.

Plasma stability, human = type: in vitro ADME
Procedure: as §1

[1] = Plasma protein binding (PPB), rat; type: in vitro ADME
Procedure: as §1

Plasma stability, rat = type: in vitro ADME
Procedure: as §1

MLM stability T1/2 = type: in vitro ADME; settings: mouse, liver microsomes
Procedure: as §1

human ALDH2 wild type = target: T1, human ALDH2 wild type (Homo sapiens, UniProt P05091); experiment: ALDH2 enzymatic assay (NADH at 340 nm), recombinant wild type enzyme; type: biochemical; design: key: −: no activation or inhibition; +: activation less than control 1; ++: activation similar to control 1, within 10%; +++: activation more than control 1 and less than control (compound 161); ++++: activation similar to compound 161, within 10%; settings: activation relative to benchmarks control 1 and compound 161
T1 construct: His-tag (pTrcHis vector) (N); made in house; host or cells: E. coli BL21
T1 sequence (P05091 18-517): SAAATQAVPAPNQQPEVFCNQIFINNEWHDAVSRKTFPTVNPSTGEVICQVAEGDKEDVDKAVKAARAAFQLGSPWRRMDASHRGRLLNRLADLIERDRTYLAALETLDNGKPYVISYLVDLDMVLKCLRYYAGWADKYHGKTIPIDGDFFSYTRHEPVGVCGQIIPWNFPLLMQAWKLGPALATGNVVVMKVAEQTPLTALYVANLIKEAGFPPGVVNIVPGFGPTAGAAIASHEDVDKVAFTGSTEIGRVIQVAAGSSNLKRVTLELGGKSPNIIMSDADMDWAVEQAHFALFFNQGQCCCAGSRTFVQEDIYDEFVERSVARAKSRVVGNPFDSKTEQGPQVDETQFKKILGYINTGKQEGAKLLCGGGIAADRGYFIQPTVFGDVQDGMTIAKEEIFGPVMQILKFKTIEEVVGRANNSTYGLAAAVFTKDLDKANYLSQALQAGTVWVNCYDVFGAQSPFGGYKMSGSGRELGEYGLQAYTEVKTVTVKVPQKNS

CYP2C9 = CYP2C9 (Homo sapiens, UniProt P11712); experiment: Cyp inhibition 2C9; type: in vitro ADME
CYP2C9, sequence (P11712 whole entry): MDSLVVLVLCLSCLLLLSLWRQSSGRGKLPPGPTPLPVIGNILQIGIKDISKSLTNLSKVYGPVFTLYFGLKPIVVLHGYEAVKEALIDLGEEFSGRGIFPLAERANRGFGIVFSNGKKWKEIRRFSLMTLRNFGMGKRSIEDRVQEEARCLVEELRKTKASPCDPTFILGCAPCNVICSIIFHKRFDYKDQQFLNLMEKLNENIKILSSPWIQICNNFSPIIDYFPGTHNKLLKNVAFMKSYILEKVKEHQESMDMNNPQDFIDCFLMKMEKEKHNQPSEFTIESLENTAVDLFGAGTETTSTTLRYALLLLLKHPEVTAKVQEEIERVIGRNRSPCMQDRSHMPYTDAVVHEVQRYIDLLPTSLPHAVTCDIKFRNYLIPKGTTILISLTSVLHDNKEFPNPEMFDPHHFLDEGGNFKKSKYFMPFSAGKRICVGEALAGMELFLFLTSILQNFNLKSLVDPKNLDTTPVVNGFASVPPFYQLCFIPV
Procedure: as §1

CYP2C19 = CYP2C19 (Homo sapiens, UniProt P33261); experiment: Cyp inhibition 2C19; type: in vitro ADME; design: inhibition: dose or concentration left out as unconfirmed
CYP2C19, sequence (P33261 whole entry): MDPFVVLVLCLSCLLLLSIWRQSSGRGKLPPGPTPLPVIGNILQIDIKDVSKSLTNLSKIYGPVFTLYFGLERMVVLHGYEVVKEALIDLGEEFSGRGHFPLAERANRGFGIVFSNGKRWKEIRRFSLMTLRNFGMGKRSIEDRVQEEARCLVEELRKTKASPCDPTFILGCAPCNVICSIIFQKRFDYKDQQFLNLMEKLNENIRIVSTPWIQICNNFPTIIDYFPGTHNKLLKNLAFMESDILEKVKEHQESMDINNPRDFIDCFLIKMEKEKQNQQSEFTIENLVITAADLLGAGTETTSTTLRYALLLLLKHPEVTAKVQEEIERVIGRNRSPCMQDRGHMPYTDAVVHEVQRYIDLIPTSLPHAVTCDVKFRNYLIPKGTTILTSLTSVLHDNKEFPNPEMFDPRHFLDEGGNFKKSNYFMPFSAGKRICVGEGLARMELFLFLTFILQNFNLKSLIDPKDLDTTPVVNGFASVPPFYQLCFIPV
Procedure: as §1

CYP3A4 = CYP3A4 (Homo sapiens, UniProt P08684); experiment: Cyp inhibition 3A4; type: in vitro ADME; design: inhibition: dose or concentration left out as unconfirmed
CYP3A4, sequence (P08684 whole entry): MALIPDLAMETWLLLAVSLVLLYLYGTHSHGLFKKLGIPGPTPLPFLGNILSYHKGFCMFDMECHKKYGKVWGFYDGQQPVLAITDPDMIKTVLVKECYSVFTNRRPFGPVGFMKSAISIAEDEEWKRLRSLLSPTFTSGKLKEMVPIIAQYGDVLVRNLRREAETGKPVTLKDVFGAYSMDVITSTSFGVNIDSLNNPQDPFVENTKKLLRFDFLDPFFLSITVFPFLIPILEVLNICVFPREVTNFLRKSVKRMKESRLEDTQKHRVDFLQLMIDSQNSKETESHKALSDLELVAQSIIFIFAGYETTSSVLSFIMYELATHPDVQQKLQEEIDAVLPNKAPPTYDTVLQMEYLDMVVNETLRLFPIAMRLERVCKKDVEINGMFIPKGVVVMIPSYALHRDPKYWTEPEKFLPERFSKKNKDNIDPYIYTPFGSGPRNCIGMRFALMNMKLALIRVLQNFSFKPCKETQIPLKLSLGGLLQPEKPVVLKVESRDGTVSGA
Procedure: as §1

Aqueous solubility = type: physicochemical
Procedure: as §1

[2] = tested on: ALDH-2 (or mutant) enzyme; experiment: Rate of 4-HNE oxidation by ALDH-2; type: biochemical; settings: 4-HNE substrate, O.D. 340 nm, 25° C.
Procedure: The effect of compound 161 on the rate of 4-HNE oxidation by ALDH-2 was carried out by methods known in the art. To each well of a 96-well flat bottom UV plate, the following reagents were sequentially added by pipetting:
50 μl of 100 mM sodium pyrophosphate decahydrate (NaPPi, pH 8.4)
25 μl of 10 mM nicotinamide adenine dinucleotide hydrate (NAD)
1 μl of 20 mM testing compound DMSO solution
The plate was then put on a shaker to mix the cocktails in wells. After 5 minutes of mixing, 1 ul of ALDH-2 (or mutant) enzyme was added to each well with the reagent cocktail. DMSO was used as blank control in the plate. The plate was again put on shaker for another 5 minutes of shaking to enhance bonding between testing compounds and the enzyme.
1 ul of 30 mM 4-HNE in water was then added to each of wells containing the above reaction mixture. After a short vigorous mixing, the UV plate was fed into a plate reader to measure kinetic optical density (O.D.) at wavelength 340 nm at 25° C. over 4 minutes. Each point of measurement was taken at a time interval of 40 seconds.

[3] = tested on: mice treated with PO 5 g/kg of EtOH; experiment: Mouse pharmacodynamics (PD) study after EtOH; type: in vivo
Procedure: Mice (male C57BL6 (8 to 9 weeks, 20-22 g)) were treated with PO […] of EtOH. Then PO 40 mg/kg or 60 mg/kg compound 161 were administered to the mice. […] FIG. 6 is a graph showing the behavior of mice at 120 min, 180 min, and 300 min. FIG. 7 is a graph showing the alcohol concentration (mg/dL) at 75 min and 180 min.
A PD study of IV administration of compound 161 was also carried out. The mice were treated with PO 5 g/kg of alcohol and were then treated with 10 mg/kg of compound 161 administered through IV. […] FIG. 8 is a graph showing the blood alcohol concentration (mg/dL) versus time (hr).

logD (LogD (pH 7.4)): 3
plasma stability (human, 5 h) (Plasma stability, human; 5 h): 100%
Plasma stability Human (Plasma stability, human; plasma): 100%
fraction unbound [1]: 0.039
Plasma stability Rat (Plasma stability, rat): 100%
half-life (MLM stability T1/2): 2.08 min
ALDH2 (wild-type) (human ALDH2 wild type): ++++
inhibition at 10 µM (CYP2C9): 5.7%
inhibition (CYP2C19): 16%
inhibition at 10 µM (CYP2C19; 10 μM): 15.9%
inhibition (CYP3A4): 15%
inhibition at 10 µM (CYP3A4; 10 μM): 14.9%
Aqu. Solu. (Aqueous solubility): 28 µg/mL
rate of 4-HNE oxidation by ALDH-2 [2]: accelerate the rate of 4-HNE oxidation
SMILES: COc1ccc(CNC(=O)c2c(Cl)ccnc2OCC2CC2)cc1F [Compound 161]
blood alcohol levels ([3]; PO 5 g/kg EtOH, compound PO 40 mg/kg or 60 mg/kg): reduces blood alcohol levels
blood alcohol levels ([3]; PO 5 g/kg alcohol, compound 10 mg/kg IV): reduces blood alcohol levels
PD response (behavior observation) ([3]; PO EtOH, then PO 40 mg/kg or 60 mg/kg): significant PD response
